# In PubChem BioAssay AID2060333 (Molecular Pharmacology Branch, DTP, NCI, 2025):
# Several values for one entry are separate records, joined by “and”; a condition that tells them apart may be missing. Identical values can stand only once.
# Tested on: 845751-090-R-J2-PDC tumor spheroid viability
# Assay: Anticancer human tumor 845751-090-R-J2-PDC patient-derived head and neck squamous carcinoma cell line growth inhibition [IpAb]
# Conditions: spheroids with HUVEC and MSC; for viability, T/C: stronger effect = lower value
# Summary of the method: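 Spheroids of 60% malignant cells, 25% HUVEC and 15% MSC were exposed to targeted agents combined with ipatasertib or abemaciclib. Doses started at or near clinical Cmax (10 microM when unknown) and fell in half-log steps.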
# [1] = curve of first compound, second compound 0.1 µM
# [2] = curve of first compound, second compound 0.316 µM
# [3] = curve of first compound, second compound 1 µM
# [4] = second compound 0.1 µM, first compound 0.00949 µM
# [5] = second compound 0.1 µM, first compound 0.03 µM
# [6] = second compound 0.1 µM, first compound 0.0949 µM
# [7] = second compound 0.1 µM, first compound 0.3 µM
# [8] = second compound 0.1 µM, first compound 0.949 µM
# [9] = second compound 0.1 µM, first compound 3 µM
# [10] = second compound 0.316 µM, first compound 0.00949 µM
# [11] = second compound 0.316 µM, first compound 0.03 µM
# [12] = second compound 0.316 µM, first compound 0.0949 µM
# [13] = second compound 0.316 µM, first compound 0.3 µM
# [14] = second compound 0.316 µM, first compound 0.949 µM
# [15] = second compound 0.316 µM, first compound 3 µM
# [16] = second compound 1 µM, first compound 0.00949 µM
# [17] = second compound 1 µM, first compound 0.03 µM
# [18] = second compound 1 µM, first compound 0.0949 µM
# [19] = second compound 1 µM, first compound 0.3 µM
# [20] = second compound 1 µM, first compound 0.949 µM
# [21] = second compound 1 µM, first compound 3 µM
# [22] = curve of first compound, second compound 3.16 µM
# [23] = curve of first compound, second compound 10 µM
# 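Further: spheroids exposed to compounds for 7 days before readout.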
# 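Wherever viability, T/C is given: CTG3D luminescence normalised so that 100% = DMSO vehicle control.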
compound,measurement,setting,value
CC(C)(C)c1cnc(CSc2cnc(NC(=O)C3CCNCC3)s2)o1 + CCN1CCN(Cc2ccc(Nc3ncc(F)c(-c4cc(F)c5nc(C)n(C(C)C)c5c4)n3)nc2)CC1,IC50,"curve of first compound, second compound 0.01 µM",97.3 nM
same,IC50,"curve of first compound, second compound 0.0316 µM",71.4 nM
same,IC50,[1],51.2 nM
same,IC50,[2],36.5 nM
same,IC50,[3],38.4 nM
same,"viability, T/C","second compound 0.01 µM, first compound 0.00949 µM",112%
same,"viability, T/C","second compound 0.01 µM, first compound 0.03 µM",91.9%
same,"viability, T/C","second compound 0.01 µM, first compound 0.0949 µM",55%
same,"viability, T/C","second compound 0.01 µM, first compound 0.3 µM",1.28%
same,"viability, T/C","second compound 0.01 µM, first compound 0.949 µM",1.21%
same,"viability, T/C","second compound 0.01 µM, first compound 3 µM",1.79%
same,"viability, T/C","second compound 0.0316 µM, first compound 0.00949 µM",92.8%
same,"viability, T/C","second compound 0.0316 µM, first compound 0.03 µM",102%
same,"viability, T/C","second compound 0.0316 µM, first compound 0.0949 µM",34.5%
same,"viability, T/C","second compound 0.0316 µM, first compound 0.3 µM",1.59%
same,"viability, T/C","second compound 0.0316 µM, first compound 0.949 µM",0.68%
same,"viability, T/C","second compound 0.0316 µM, first compound 3 µM",0.88%
same,"viability, T/C",[4],90.5%
same,"viability, T/C",[5],69.6%
same,"viability, T/C",[6],27.7%
same,"viability, T/C",[7],1.77%
same,"viability, T/C",[8],0.43%
same,"viability, T/C",[9],0.69%
same,"viability, T/C",[10],76%
same,"viability, T/C",[11],57.9%
same,"viability, T/C",[12],11.5%
same,"viability, T/C",[13],0.79%
same,"viability, T/C",[14],0.67%
same,"viability, T/C",[15],0.6%
same,"viability, T/C",[16],62%
same,"viability, T/C",[17],63.1%
same,"viability, T/C",[18],3.89%
same,"viability, T/C",[19],2.43%
same,"viability, T/C",[20],1.4%
same,"viability, T/C",[21],0.76%
CC(C)(C)c1cnc(CSc2cnc(NC(=O)C3CCNCC3)s2)o1 + CC(C)NCC(C(=O)N1CCN(c2ncnc3c2C(C)CC3O)CC1)c1ccc(Cl)cc1,IC50,[1],30.1 nM
same,IC50,[2],< 9.49 nM
same,IC50,[3],< 9.49 nM
same,IC50,[22],< 9.49 nM
same,IC50,[23],< 9.49 nM
same,"viability, T/C",[4],88.9%
same,"viability, T/C",[5],50.1%
same,"viability, T/C",[6],7.88%
same,"viability, T/C",[7],0.63%
same,"viability, T/C",[8],0.78%
same,"viability, T/C",[9],0.94%
same,"viability, T/C",[10],34.4%
same,"viability, T/C",[11],40.4%
same,"viability, T/C",[12],9.45%
same,"viability, T/C",[13],0.23%
same,"viability, T/C",[14],0.27%
same,"viability, T/C",[15],0.95%
same,"viability, T/C",[16],27%
same,"viability, T/C",[17],28.8%
same,"viability, T/C",[18],10.8%
same,"viability, T/C",[19],0.59%
same,"viability, T/C",[20],0.34%
same,"viability, T/C",[21],0.55%
same,"viability, T/C","second compound 3.16 µM, first compound 0.00949 µM",27.4%
same,"viability, T/C","second compound 3.16 µM, first compound 0.03 µM",27.7%
same,"viability, T/C","second compound 3.16 µM, first compound 0.0949 µM",9.06%
same,"viability, T/C","second compound 3.16 µM, first compound 0.3 µM",0.29%
same,"viability, T/C","second compound 3.16 µM, first compound 0.949 µM",0.31%
same,"viability, T/C","second compound 3.16 µM, first compound 3 µM",0.87%
same,"viability, T/C","second compound 10 µM, first compound 0.00949 µM",14.1%
same,"viability, T/C","second compound 10 µM, first compound 0.03 µM",12.7%
same,"viability, T/C","second compound 10 µM, first compound 0.0949 µM",3.48%
same,"viability, T/C","second compound 10 µM, first compound 0.3 µM",1.09%
same,"viability, T/C","second compound 10 µM, first compound 0.949 µM",0.27%
same,"viability, T/C","second compound 10 µM, first compound 3 µM",1.61%
C=CC(=O)N1CCN(c2nc(=O)n(-c3c(C)ccnc3C(C)C)c3nc(-c4c(O)cccc4F)c(F)cc23)C(C)C1 (centres undefined),"viability, T/C",compound 0.0316 µM,84.1% and 78.2%
same,"viability, T/C",compound 0.1 µM,88.8% and 74.3%
same,"viability, T/C",compound 0.316 µM,98.2% and 105%
same,"viability, T/C",compound 1 µM,95.9% and 88.2%
same,"viability, T/C",compound 3.16 µM,82.6% and 77.3%
same,"viability, T/C",compound 10 µM,30.3% and 68.4%
same,IC50,curve of compound,6490 nM and > 10000 nM
C=CC(=O)N1CCN(c2nc(=O)n(-c3c(C)ccnc3C(C)C)c3nc(-c4c(O)cccc4F)c(F)cc23)C(C)C1 (centres undefined) + CC(C)NCC(C(=O)N1CCN(c2ncnc3c2C(C)CC3O)CC1)c1ccc(Cl)cc1,IC50,[1],< 31.6 nM
same,IC50,[2],< 31.6 nM
same,IC50,[3],< 31.6 nM
same,IC50,[22],< 31.6 nM
same,IC50,[23],< 31.6 nM
same,"viability, T/C","second compound 0.1 µM, first compound 0.0316 µM",47.1%
same,"viability, T/C","second compound 0.1 µM, first compound 0.1 µM",46.7%
same,"viability, T/C","second compound 0.1 µM, first compound 0.316 µM",28.9%
same,"viability, T/C","second compound 0.1 µM, first compound 1 µM",36.3%
same,"viability, T/C","second compound 0.1 µM, first compound 3.16 µM",22.1%
same,"viability, T/C","second compound 0.1 µM, first compound 10 µM",10.7%
same,"viability, T/C","second compound 0.316 µM, first compound 0.0316 µM",28.2%
same,"viability, T/C","second compound 0.316 µM, first compound 0.1 µM",30.3%
same,"viability, T/C","second compound 0.316 µM, first compound 0.316 µM",21.2%
same,"viability, T/C","second compound 0.316 µM, first compound 1 µM",24.9%
same,"viability, T/C","second compound 0.316 µM, first compound 3.16 µM",21.9%
same,"viability, T/C","second compound 0.316 µM, first compound 10 µM",13.8%
same,"viability, T/C","second compound 1 µM, first compound 0.0316 µM",22.9%
same,"viability, T/C","second compound 1 µM, first compound 0.1 µM",25%
same,"viability, T/C","second compound 1 µM, first compound 0.316 µM",21.5%
same,"viability, T/C","second compound 1 µM, first compound 1 µM",28.2%
same,"viability, T/C","second compound 1 µM, first compound 3.16 µM",19.3%
same,"viability, T/C","second compound 1 µM, first compound 10 µM",7.88%
same,"viability, T/C","second compound 3.16 µM, first compound 0.0316 µM",21.7%
same,"viability, T/C","second compound 3.16 µM, first compound 0.1 µM",18.3%
same,"viability, T/C","second compound 3.16 µM, first compound 0.316 µM",22.9%
same,"viability, T/C","second compound 3.16 µM, first compound 1 µM",19.7%
same,"viability, T/C","second compound 3.16 µM, first compound 3.16 µM",11.9%
same,"viability, T/C","second compound 3.16 µM, first compound 10 µM",5.86%
same,"viability, T/C","second compound 10 µM, first compound 0.0316 µM",15.2%
same,"viability, T/C","second compound 10 µM, first compound 0.1 µM",12.3%
same,"viability, T/C","second compound 10 µM, first compound 0.316 µM",12.2%
same,"viability, T/C","second compound 10 µM, first compound 1 µM",12.5%
same,"viability, T/C","second compound 10 µM, first compound 3.16 µM",8.32%
same,"viability, T/C","second compound 10 µM, first compound 10 µM",3.28%
CC1(C)CCC(CN2CCN(c3ccc(C(=O)NS(=O)(=O)c4ccc(NCC5CCOCC5)c([N+](=O)[O-])c4)c(Oc4cnc5[nH]ccc5c4)c3)CC2)=C(c2ccc(Cl)cc2)C1,"viability, T/C",compound 0.0316 µM,124% and 120%
same,"viability, T/C",compound 0.1 µM,111% and 103%
same,"viability, T/C",compound 0.316 µM,145% and 85.5%
same,"viability, T/C",compound 1 µM,198% and 117%
same,"viability, T/C",compound 3.16 µM,221% and 138%
same,"viability, T/C",compound 10 µM,37.6% and 25.7%
same,IC50,curve of compound,8900 nM and 7240 nM
